We go through one compound from ChEMBL document CHEMBL2424545, “Structure-efficiency relationship of [1,2,4]triazol-3-ylamines as novel nicotinamide isosteres that inhibit tankyrases” (J Med Chem, 2013).

The nature of series [1]: Solubility of the compound at pH 6.8. The series is classed as physicochemical. Particulars: buffer.
The target of series [2] is Poly [ADP-ribose] polymerase 1 (Homo sapiens, UniProt P09874).
Description: Inhibition of human PARP1 after 60 mins by LC-MS analysis
A short description of series [3]: Oral bioavailability in C57BL/6 mouse at 5 mg/kg. Conditions: in vivo. The series is classed as ADME, organism-based.
Series [4] is described as follows: Inhibition of TNKS in human SW480 cells assessed as stabilization of axin2 after 24 hrs by ELISA. The series is classed as cell-based.
A short description of series [5]: Plasma clearance in C57BL/6 mouse at 1 mg/kg, iv. The series is classed as ADME, organism-based. Also noted: dose 1 mg/kg, route intravenous.
The nature of series [6]: AUC (last) in C57BL/6 mouse at 1 mg/kg, iv. Conditions: plasma. The series is classed as ADME, organism-based. The arrangement: time 0 - last, dose 1 mg/kg, route intravenous.
Series [7] has as its system Mus musculus. Briefly: T(last) in C57BL/6 mouse at 1 mg/kg, iv. The series is classed as ADME, organism-based. The arrangement: dose 1 mg/kg, route intravenous. Conditions: in vivo.
Series [8] concerns the target T1, Poly [ADP-ribose] polymerase tankyrase-2 (Homo sapiens, UniProt Q9H2K2).
T1 sequence (Q9H2K2 whole entry): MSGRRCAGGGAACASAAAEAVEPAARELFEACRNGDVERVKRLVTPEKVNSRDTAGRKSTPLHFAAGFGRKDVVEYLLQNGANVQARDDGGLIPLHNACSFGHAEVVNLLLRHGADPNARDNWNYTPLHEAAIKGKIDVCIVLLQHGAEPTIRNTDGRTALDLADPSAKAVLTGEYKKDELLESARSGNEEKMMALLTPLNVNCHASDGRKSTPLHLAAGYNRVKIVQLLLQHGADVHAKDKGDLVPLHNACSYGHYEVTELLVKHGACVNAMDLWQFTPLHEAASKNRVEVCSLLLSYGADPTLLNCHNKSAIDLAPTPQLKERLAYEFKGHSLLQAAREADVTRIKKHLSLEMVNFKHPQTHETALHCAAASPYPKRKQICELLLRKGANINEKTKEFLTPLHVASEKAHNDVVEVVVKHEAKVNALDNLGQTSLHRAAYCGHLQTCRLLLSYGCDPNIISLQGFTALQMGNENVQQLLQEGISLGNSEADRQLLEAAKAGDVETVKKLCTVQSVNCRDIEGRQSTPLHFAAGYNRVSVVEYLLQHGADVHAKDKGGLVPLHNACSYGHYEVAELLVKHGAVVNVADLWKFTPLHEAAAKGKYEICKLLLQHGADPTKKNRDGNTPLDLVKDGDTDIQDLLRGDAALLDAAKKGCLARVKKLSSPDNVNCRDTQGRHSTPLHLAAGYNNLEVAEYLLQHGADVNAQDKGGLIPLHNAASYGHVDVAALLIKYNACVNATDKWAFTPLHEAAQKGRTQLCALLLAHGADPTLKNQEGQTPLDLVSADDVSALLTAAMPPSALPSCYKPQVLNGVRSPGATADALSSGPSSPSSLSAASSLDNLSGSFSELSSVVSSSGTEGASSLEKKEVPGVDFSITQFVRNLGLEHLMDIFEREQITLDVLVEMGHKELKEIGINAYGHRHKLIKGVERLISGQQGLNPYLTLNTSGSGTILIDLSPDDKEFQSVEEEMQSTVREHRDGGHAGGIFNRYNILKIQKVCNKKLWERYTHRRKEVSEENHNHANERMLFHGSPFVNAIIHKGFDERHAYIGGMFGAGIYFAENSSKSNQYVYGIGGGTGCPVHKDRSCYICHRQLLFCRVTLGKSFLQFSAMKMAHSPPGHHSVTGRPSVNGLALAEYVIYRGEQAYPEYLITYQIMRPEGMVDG
Briefly: Inhibition of N-terminal GST-tagged TNKS2 (unknown origin) expressed in baculovirus infected sf21 cells after 60 mins by LC-MS analysis.

Series [9] is described as follows: Cmax in C57BL/6 mouse at 1 mg/kg, iv. The series is classed as ADME, organism-based. Also noted: dose 1 mg/kg, route intravenous. Particulars: in vivo.
A short description of series [10]: Tmax in C57BL/6 mouse at 5 mg/kg, po. The arrangement: dose 5 mg/kg, route oral. Particulars: in vivo. It is filed as ADME, organism-based.
A short description of series [11]: Inhibition of Wnt signaling in human HEK293 cells by STF luciferase reporter gene assay.
Series [12] in a line: Half life in C57BL/6 mouse at 1 mg/kg, iv. The series is classed as ADME, organism-based. The arrangement: dose 1 mg/kg, route intravenous. Particulars: in vivo.
Series [13] is described as follows: Mean residence time (0 to t) in C57BL/6 mouse at 1 mg/kg, iv. The series is classed as ADME, organism-based. The arrangement: dose 1 mg/kg, route intravenous. Particulars: in vivo.
A short description of series [14]: Hepatic extraction ratio in human liver microsomes. The series is classed as ADME, Microsome. Conditions: read-out: ERH.
A short description of series [15]: AUC (last) in C57BL/6 mouse at 5 mg/kg, po. The series is classed as ADME, organism-based. Also noted: time 0 - last, dose 5 mg/kg, route oral. Conditions: plasma.
A short description of series [16]: Volume of distribution at steady state in C57BL/6 mouse at 1 mg/kg, iv. The series is classed as ADME, organism-based. Also noted: dose 1 mg/kg, route intravenous. Conditions: in vivo, read-out: Vdss(app).
Series [17] can be described thus: Cmax in C57BL/6 mouse at 5 mg/kg, po. It is filed as ADME, organism-based. Also noted: dose 5 mg/kg, route oral. Conditions: in vivo.
The nature of series [18]: Tmax in C57BL/6 mouse at 1 mg/kg, iv. The series is classed as ADME, organism-based. The arrangement: dose 1 mg/kg, route intravenous. Particulars: in vivo.
Series [19] in a line: Hepatic extraction ratio in mouse liver microsomes. It is filed as ADME, Microsome. Conditions: read-out: ERH.
Series [20] addresses T2, Poly [ADP-ribose] polymerase tankyrase-1 (Homo sapiens, UniProt O95271).
T2 sequence (O95271 whole entry): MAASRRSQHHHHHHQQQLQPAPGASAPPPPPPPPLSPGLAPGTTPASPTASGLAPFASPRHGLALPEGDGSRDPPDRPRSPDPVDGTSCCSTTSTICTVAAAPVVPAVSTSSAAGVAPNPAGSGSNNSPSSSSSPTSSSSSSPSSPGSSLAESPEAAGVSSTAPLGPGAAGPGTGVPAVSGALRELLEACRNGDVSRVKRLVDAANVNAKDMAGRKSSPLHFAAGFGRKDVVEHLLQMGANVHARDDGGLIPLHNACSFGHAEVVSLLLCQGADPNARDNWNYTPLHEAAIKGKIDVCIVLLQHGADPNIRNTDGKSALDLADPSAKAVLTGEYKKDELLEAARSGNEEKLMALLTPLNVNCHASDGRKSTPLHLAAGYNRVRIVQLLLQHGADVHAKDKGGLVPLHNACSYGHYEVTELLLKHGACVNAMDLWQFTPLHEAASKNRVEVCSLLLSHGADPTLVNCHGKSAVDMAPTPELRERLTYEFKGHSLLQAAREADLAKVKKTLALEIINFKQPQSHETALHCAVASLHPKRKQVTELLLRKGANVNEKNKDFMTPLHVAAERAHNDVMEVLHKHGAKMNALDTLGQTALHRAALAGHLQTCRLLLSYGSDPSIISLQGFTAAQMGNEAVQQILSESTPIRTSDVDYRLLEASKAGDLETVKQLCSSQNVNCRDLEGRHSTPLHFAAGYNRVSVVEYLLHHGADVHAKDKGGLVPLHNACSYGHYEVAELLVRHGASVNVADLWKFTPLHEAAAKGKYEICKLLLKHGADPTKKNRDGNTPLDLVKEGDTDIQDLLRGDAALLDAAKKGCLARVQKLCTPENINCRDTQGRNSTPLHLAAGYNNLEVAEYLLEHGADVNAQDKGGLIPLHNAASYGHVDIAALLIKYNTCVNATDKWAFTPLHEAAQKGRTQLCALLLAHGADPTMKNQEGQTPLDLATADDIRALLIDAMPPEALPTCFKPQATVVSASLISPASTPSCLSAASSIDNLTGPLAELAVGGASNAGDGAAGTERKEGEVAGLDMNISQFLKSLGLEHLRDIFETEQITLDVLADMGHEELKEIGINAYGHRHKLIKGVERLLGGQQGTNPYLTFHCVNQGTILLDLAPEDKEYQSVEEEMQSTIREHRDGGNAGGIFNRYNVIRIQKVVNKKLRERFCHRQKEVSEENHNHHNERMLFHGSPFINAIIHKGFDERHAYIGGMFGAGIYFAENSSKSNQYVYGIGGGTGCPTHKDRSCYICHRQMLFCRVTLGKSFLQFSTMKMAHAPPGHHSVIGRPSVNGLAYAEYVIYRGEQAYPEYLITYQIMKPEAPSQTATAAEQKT
Nature of the series: Inhibition of N-terminal GST-tagged human TNKS1 expressed in baculovirus infected sf21 cells after 60 mins by LC-MS analysis.

Poly [ADP-ribose] polymerase 1, sequence (P09874 whole entry): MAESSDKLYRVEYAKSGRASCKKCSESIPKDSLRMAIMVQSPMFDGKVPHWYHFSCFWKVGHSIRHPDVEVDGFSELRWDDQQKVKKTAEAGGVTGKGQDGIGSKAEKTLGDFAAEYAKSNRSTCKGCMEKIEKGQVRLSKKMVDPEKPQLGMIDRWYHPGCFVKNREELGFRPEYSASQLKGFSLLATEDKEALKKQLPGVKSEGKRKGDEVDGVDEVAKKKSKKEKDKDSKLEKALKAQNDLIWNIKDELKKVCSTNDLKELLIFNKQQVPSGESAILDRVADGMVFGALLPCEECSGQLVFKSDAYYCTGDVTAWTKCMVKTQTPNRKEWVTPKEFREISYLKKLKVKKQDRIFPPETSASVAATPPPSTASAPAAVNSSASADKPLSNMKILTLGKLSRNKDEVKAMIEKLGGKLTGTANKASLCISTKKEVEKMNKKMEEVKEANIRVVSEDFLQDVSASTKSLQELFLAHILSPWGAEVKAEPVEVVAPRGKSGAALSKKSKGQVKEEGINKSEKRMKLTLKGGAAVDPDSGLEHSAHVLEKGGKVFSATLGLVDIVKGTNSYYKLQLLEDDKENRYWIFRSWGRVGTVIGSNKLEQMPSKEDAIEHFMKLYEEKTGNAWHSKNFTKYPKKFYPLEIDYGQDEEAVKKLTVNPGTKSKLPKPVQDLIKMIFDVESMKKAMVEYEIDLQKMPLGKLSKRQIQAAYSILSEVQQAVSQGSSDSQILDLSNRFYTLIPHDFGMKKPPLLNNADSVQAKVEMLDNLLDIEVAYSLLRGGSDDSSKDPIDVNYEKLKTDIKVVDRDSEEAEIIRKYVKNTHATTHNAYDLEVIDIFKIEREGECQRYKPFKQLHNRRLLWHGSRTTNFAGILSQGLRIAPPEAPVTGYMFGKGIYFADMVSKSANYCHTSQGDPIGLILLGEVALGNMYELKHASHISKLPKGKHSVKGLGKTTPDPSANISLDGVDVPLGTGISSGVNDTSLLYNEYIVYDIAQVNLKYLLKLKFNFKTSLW

As to `CC(C)CC(=O)Nc1nnc2n1CCS2`, the solubility in series [1] was over 1000 µM. The IC50 in series [2] stood at 55.3 µM; in series [4], 7.67 µM; in series [8] it was 0.103 µM; in series [11] it was 6.45 µM; in [20], 0.395 µM. The compound also gave a bioavailability in [3] of 36%. Further, in series [5], the clearance worked out at 17 mL/min/kg. Also, the AUC(0-t) in series [6] turned out to be 4.73 µM·h; in series [15] it was 8.6 µM·h. Besides, the Tlast in [7] was 1 h. The Cmax amounted to 19.1 µM in series [9] and 13.7 µM in [17]. The Tmax in [10] and in series [18] was 18 min in each case. This compound gave a half-life in series [12] of 6 min. This compound also returned an MRT last in series [13] of 6 min. The results for the hepatic extraction ratio in series [14] and in [19] were 0.17 and 0.29, respectively. The Vd in [16] came to 0.1 L/kg.
